Measurements published in US9132140B2, “Boronic acid derivatives and therapeutic uses thereof” (Rempex Pharmaceuticals, Inc., priority 2013, dated 2015).
Like-named read-outs stand apart in the source and are kept apart here.

How the values were obtained:
[1] = system: ECM6703 (pUCP24-NDM-1); test: microbe, parasite or virus in culture; format: cell-based, E. coli; conditions: Escherichia coli, read-out: Imipenem MIC Alone
[2] = system: ECM6711 (pUCP24-VIM-1); test: microbe, parasite or virus in culture; format: cell-based, E. coli; conditions: Escherichia coli, read-out: Imipenem MIC Alone
[3] = system: KP1081 (NDM-1, TEM-1, SHV-11, CMY-6, CTX-M-15); format: cell-based, Klebsiella pneumoniae
Description: (§1) The results are present in Table 6.
(§2) The results are present in Table 7.

[4] = system: KP1087 (KPC-2, CTX-M-15, SHV-11, TEM-1); format: cell-based, Klebsiella pneumoniae
Description: as §1, §2

[5] = system: EA1019 (SHV-5, VIM-1); format: cell-based, Enterobacter aerogenes
Description: (§3) Several strains simultaneously expressing both class A and class B carbapenemases, which were constructed using conjugation, were also included in the panel.

[6] = system: KP1004 (KPC TEM SHV); format: cell-based, Klebsiella pneumoniae
Description: as §3

[7] = system: KP1014 (Vim-1, TEM, SHV); format: cell-based, Klebsiella pneumoniae
Description: as §3

[8] = system: KP1054 (VIM-1, SHV-11); format: cell-based, Klebsiella pneumoniae
Description: as §3

[9] = system: KP1059 (VIM-1, SHV-11); format: cell-based, Klebsiella pneumoniae
Description: as §3

[10] = system: KP1061 (KPC TEM SHV); format: cell-based, Klebsiella pneumoniae
Description: as §3

[11] = system: KP1064 (KPC TEM SHV); format: cell-based, Klebsiella pneumoniae
Description: as §3

[12] = system: KP1065 (VIM-1, SHV-11); format: cell-based, Klebsiella pneumoniae
Description: as §3

[13] = system: KP1070 (KPC TEM SHV); format: cell-based, Klebsiella pneumoniae
Description: as §3

[14] = system: KP1081 (NDM-1, TEM-1, SHV-11, CMY-6, CTX-M-15); format: cell-based, Klebsiella pneumoniae; remark: listed apart in the source
Description: as §3

[15] = system: KP1084 (KPC-3, SHV-11, TEM-1); format: cell-based, Klebsiella pneumoniae
Description: as §3

[16] = system: KP1097 (IMP-1 SHV); format: cell-based, Klebsiella pneumoniae
Description: as §3

[17] = system: KP1098 (IMP-26 TEM SHV); format: cell-based, Klebsiella pneumoniae
Description: as §3

[18] = system: KPM1097 (NDM, KPC); format: cell-based, Klebsiella pneumoniae
Description: as §3

[19] = system: KPM1099 (NDM, KPC); format: cell-based, Klebsiella pneumoniae
Description: as §3

[20] = system: KPM1107 (NDM, KPC); format: cell-based, Klebsiella pneumoniae
Description: as §3

[21] = system: KPM1108 (NDM, KPC); format: cell-based, Klebsiella pneumoniae
Description: as §3

[22] = system: KPM1109 (NDM, KPC); format: cell-based, Klebsiella pneumoniae
Description: as §3

[23] = system: KPM1110 (NDM, KPC); format: cell-based, Klebsiella pneumoniae
Description: as §3

C[C@@H](O)[C@H]1C(=O)N2C(C(=O)O)=C(SCCN=CN)C[C@H]12 [Imipenem, reference compound]
MIC [1]: > 1 µg/mL | MIC [2]: > 1 µg/mL | Carbapenem MIC alone [3]: Z (key: X: MIC of less than 1 μg/mL; Y: MIC of 1 μg/mL to 10 μg/mL; Z: MIC of greater than 10 μg/mL) | Carbapenem MIC alone [4]: Y (key: X: MIC of less than 1 μg/mL; Y: MIC of 1 μg/mL to 10 μg/mL; Z: MIC of greater than 10 μg/mL) | Carbapenem MIC alone [5]: Z (key: X: MIC of less than 1 μg/mL; Y: MIC of 1 μg/mL to 10 μg/mL; Z: MIC of greater than 10 μg/mL) | Carbapenem MIC alone [6]: Z (key: X: MIC of less than 1 μg/mL; Y: MIC of 1 μg/mL to 10 μg/mL; Z: MIC of greater than 10 μg/mL) | Carbapenem MIC alone [7]: Z (key: X: MIC of less than 1 μg/mL; Y: MIC of 1 μg/mL to 10 μg/mL; Z: MIC of greater than 10 μg/mL) | Carbapenem MIC alone [8]: Y (key: X: MIC of less than 1 μg/mL; Y: MIC of 1 μg/mL to 10 μg/mL; Z: MIC of greater than 10 μg/mL) | Carbapenem MIC alone [9]: Z (key: X: MIC of less than 1 μg/mL; Y: MIC of 1 μg/mL to 10 μg/mL; Z: MIC of greater than 10 μg/mL) | Carbapenem MIC alone [10]: Z (key: X: MIC of less than 1 μg/mL; Y: MIC of 1 μg/mL to 10 μg/mL; Z: MIC of greater than 10 μg/mL) | Carbapenem MIC alone [11]: Z (key: X: MIC of less than 1 μg/mL; Y: MIC of 1 μg/mL to 10 μg/mL; Z: MIC of greater than 10 μg/mL) | Carbapenem MIC alone [12]: Y (key: X: MIC of less than 1 μg/mL; Y: MIC of 1 μg/mL to 10 μg/mL; Z: MIC of greater than 10 μg/mL) | Carbapenem MIC alone [13]: Z (key: X: MIC of less than 1 μg/mL; Y: MIC of 1 μg/mL to 10 μg/mL; Z: MIC of greater than 10 μg/mL) | Carbapenem MIC alone [14]: Z (key: X: MIC of less than 1 μg/mL; Y: MIC of 1 μg/mL to 10 μg/mL; Z: MIC of greater than 10 μg/mL) | Carbapenem MIC alone [15]: Z (key: X: MIC of less than 1 μg/mL; Y: MIC of 1 μg/mL to 10 μg/mL; Z: MIC of greater than 10 μg/mL) | Carbapenem MIC alone [16]: Y (key: X: MIC of less than 1 μg/mL; Y: MIC of 1 μg/mL to 10 μg/mL; Z: MIC of greater than 10 μg/mL) | Carbapenem MIC alone [17]: Y (key: X: MIC of less than 1 μg/mL; Y: MIC of 1 μg/mL to 10 μg/mL; Z: MIC of greater than 10 μg/mL) | Carbapenem MIC alone [18]: Z (key: X: MIC of less than 1 μg/mL; Y: MIC of 1 μg/mL to 10 μg/mL; Z: MIC of greater than 10 μg/mL) | Carbapenem MIC alone [19]: Z (key: X: MIC of less than 1 μg/mL; Y: MIC of 1 μg/mL to 10 μg/mL; Z: MIC of greater than 10 μg/mL) | Carbapenem MIC alone [20]: Z (key: X: MIC of less than 1 μg/mL; Y: MIC of 1 μg/mL to 10 μg/mL; Z: MIC of greater than 10 μg/mL) | Carbapenem MIC alone [21]: Z (key: X: MIC of less than 1 μg/mL; Y: MIC of 1 μg/mL to 10 μg/mL; Z: MIC of greater than 10 μg/mL) | Carbapenem MIC alone [22]: Z (key: X: MIC of less than 1 μg/mL; Y: MIC of 1 μg/mL to 10 μg/mL; Z: MIC of greater than 10 μg/mL) | Carbapenem MIC alone [23]: Z (key: X: MIC of less than 1 μg/mL; Y: MIC of 1 μg/mL to 10 μg/mL; Z: MIC of greater than 10 μg/mL)
